# Earlier results in patent publication US20180353602A1, “COMBINATION OF HDAC INHIBITOR AND ANTI-PD-L1 ANTIBODY FOR TREATMENT OF CANCER” (Syndax Pharmaceuticals, Inc., priority 2015, published 2018).
# Read-outs that look alike come from different tables or passages of the source.
# Columns and labels:
# [1] = in vivo
# [2] = test system: squamous or non-squamous non small cell lung cancer (NSCLC); conditions: ≤1, 10, 15, and 25 mg/kg every 3 weeks for up to 1 year
half-life [1],Compound,24-week progression free survival (PFS) rate ([2]; non-squamous cell NSCLC patients),24-week progression free survival (PFS) rate ([2]; squamous cell NSCLC patients)
about 100 hours,"Nc1ccccc1NC(=O)c1ccc(CNC(=O)OCc2cccnc2)cc1 [Entinostat, N-(2-aminophenyl)-4-[N-(pyridine-3-yl)methoxycarbonylamino-methyl]-benzamide]",–,–
–,"MPDL3280A: human anti-PD-L1 mAb directed against the protein ligand PD-L1, with an engineered Fc domain minimizing ADCC",46%,44%
